Results from the NIST ThermoML archive (doi:10.1016/j.tca.2008.10.009).

Conditions: Crystal, Rate of evaporation

CC(C)C[C@H](N)C(=O)O [L-leucine]
vapor or sublimation pressure (420.7 K): 0.0009 kPa | vapor or sublimation pressure (440.3 K): 0.0029 kPa | vapor or sublimation pressure (469.9 K): 0.0425 kPa | vapor or sublimation pressure (499.2 K): 0.5263 kPa | vapor or sublimation pressure (517.5 K): 2.162 kPa
